Laboratory results as given in US10350256B2, “Compositions for the treatment of dermatological conditions, disorders or diseases” (Veit Hoermann Gesellschaft Für Unternehmenskommunikation mbH, priority 2012, dated 2019).

Legend:
Type in all cases: in vivo, human
psoriasis vulgaris = assay: Case reports, treatment of psoriasis vulgaris; details: Patient H, inpatient treatment
Excerpt: A patient suffering from psoriasis vulgaris affecting the whole body started a continuous treatment with black cumin oil for six months after several failed therapies with e.g. Daivobet gel.
A patient suffering from suberythrodermic psoriasis vulgaris with iridocyclitis for 13 years received inpatient treatment to intensify therapy after exacerbation for two weeks and severe itching.
Hyperkeratotic plaques were found between the fingers, discreet macerations between the toes, well defined, deeply red foci at the rima ani, and discreet redness at the penis. The psoriasis area and severity index (PASI) at admission was 36.
During inpatient treatment a therapy with fumaric acid was started; the patient further received Ceterizin and Atarax. […] Local treatments included treatment with dithranol vaseline and kopflanette. Further, the whole integument received baths with soft soap and Balneum-Hermal F. The capillitium received Silix washing oil and betamethasone.
The patient further used Curatoderm emulsion for the face. Intertrigines were treated with Candiohermal and Psorcutan ointment. The PASI at discharge was 14.7.
The further medication after discharge from the hospital included fumaric acid, Loratadin, Psorcutan ointment, urea-containing ointment, and Curatoderm emulsions. […]

atopic eczema = assay: Case reports, topical treatment of atopic eczema; details: Patient B, earlier conventional therapies
Excerpt: (§1) Various patients have been treated topically with one of the compositions of Example 1 (Recipe N) and Example 2 (Recipe P). These patients were therapy-refractory, i.e. the patients had already been treated with standard therapies to no avail. […] Since the patients had been suffering from their respective diseases for a long time, the treatment with the compositions of the present invention seems to be effective in all stages of the diseases.
A patient suffering from atopic eczema for all their life received a continuous treatment of the affected body parts (elbows, neck, face, legs) over one month with the composition of Example 1 (Recipe N) in an amount of 1 to 10 grams in two treatments per day.
A patient suffering from atopic eczema for more than 20 years received a treatment of the affected body parts (elbows, neck, face) with the composition of Example 1 (Recipe N) for two weeks in an amount of 3 grams in two treatments per day. […] The patient stated that they had never felt so good in 20 years.
A patient suffering from atopic eczema from early childhood on, including dryness and severe itching of the affected areas of the skin, received treatment with olive oil two times a week for two months. […] Accordingly, the treatment was discontinued.
A patient suffering from atopic eczema since birth received a continuous treatment with black cumin oil for two days.

psoriasis arthritis = assay: Case report, topical treatment of psoriasis arthritis; details: Patient D
Excerpt: as §1
A patient suffering from psoriasis arthritis for more than 12 years received a treatment of the entire body with the composition of Example 2 (Recipe P). The composition was used regularly over two months in an amount of 150 g per day. The patient had already undergone several failed standard treatments, including cortisone treatment.

Compound	itching under treatment (psoriasis vulgaris)	outcome of earlier conventional therapy (atopic eczema)	outcome of earlier standard treatments (psoriasis arthritis)
O=C(O)COCCN1CCN(C(c2ccccc2)c2ccc(Cl)cc2)CC1 (stereo not drawn) [Ceterizin]	Itching remained	–	–
C[C@]12CCC(=O)C=C1CC[C@@H]1[C@@H]2C(=O)C[C@@]2(C)[C@H]1CC[C@]2(O)C(=O)CO [cortisone]	–	without any success	failed
